The series deals with human CD4+ T-cells.

As for tetanus toxoid [reference compound], under “tetanus toxoid at approximately 5 Lf/mL”, the “positive control proliferative response” value is “robust positive control responses”.
Consider “QLIFEGGEQKTTELA (listed as Mycobacterium smegmatis) [SEQ ID NO:53]”, for which the “identification of peptide T-cell epitope (significant response in donor pool)” value (5 μM peptide, human donors) is “one peptide of interest was identified”.

B1: perhydrolase: wild-type M. smegmatis perhydrolase enzyme, amino acid sequence SEQ ID NO:2 (protein, listed as Mycobacterium smegmatis)
chain: MAKRILCFGDSLTWGWVPVEDGAPTERFAPDVRWTGVLAQQLGADFEVIEEGLSARTTNIDDPTDPRLNGASYLPSCLATHLPLDLVIIMLGTNDTKAYFRRTPLDIALGMSVLVTQVLTSAGGVGTTYPAPKVLVVSPPPLAPMPHPWFQLIFEGGEQKTTELARVYSALASFMKVPFFDAGSVISTDGVDGIHFTEANNRDLGVALAEQVRSLL
With B1, the “structure index value (relative immunogenicity)” value (scale 0 to 2, the closer to 2.0 the more immunogenic) is below 0.5.

Values taken from US8871722B2, “Perhydrolase epitopes” (Danisco US Inc., priority 2005, dated 2014).
